{"source": "patent US10709712B2", "about": "“Biaryl amide compounds as kinase inhibitors” (NOVARTIS AG, priority 2013, dated 2020)", "key": {"[1]": {"target": "b-Raf(V600E) (Homo sapiens (Human), UniProt P15056, V600E)", "sequence (P15056 whole entry V600E)": "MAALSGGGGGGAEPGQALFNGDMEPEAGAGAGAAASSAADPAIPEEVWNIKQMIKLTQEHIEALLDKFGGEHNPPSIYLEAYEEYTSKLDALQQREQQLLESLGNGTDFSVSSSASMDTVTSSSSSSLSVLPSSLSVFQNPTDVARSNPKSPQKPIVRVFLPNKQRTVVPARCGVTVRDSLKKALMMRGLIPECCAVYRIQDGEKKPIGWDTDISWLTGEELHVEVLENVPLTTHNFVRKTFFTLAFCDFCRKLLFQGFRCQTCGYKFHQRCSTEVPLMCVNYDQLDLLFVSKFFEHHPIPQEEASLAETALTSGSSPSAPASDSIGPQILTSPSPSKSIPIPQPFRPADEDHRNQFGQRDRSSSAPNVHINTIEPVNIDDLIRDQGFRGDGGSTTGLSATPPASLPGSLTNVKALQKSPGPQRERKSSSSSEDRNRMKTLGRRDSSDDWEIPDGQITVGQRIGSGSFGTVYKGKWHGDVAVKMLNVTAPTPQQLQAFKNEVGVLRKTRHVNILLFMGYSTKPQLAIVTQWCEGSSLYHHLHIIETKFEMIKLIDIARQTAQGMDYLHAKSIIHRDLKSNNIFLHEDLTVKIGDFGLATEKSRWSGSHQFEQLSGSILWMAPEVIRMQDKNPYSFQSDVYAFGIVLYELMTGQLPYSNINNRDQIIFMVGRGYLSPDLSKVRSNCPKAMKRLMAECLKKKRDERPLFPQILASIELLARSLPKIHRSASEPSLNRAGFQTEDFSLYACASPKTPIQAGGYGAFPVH", "details": "read-out: b-Raf IC-50; Table 2; Alpha Screen phospho-MEK, reaction 3 hours", "protocol": "In Vitro Raf Activity Determination\nFull length MEK1 with an inactivating K97R ATP binding site mutation is utilized as a RAF substrate.\nAssay buffer: 50 mM Tris, pH 7.5, 15 mM MgCl2, 0.01% Bovine Serum Albumin (BSA), 1 mM dithiothreitol (DTT) Stop buffer: 60 mM ethylenediaminetetraacetic acid (EDTA), 0.01% Tween® 20\nbiotinylated Mek, kinase dead\n(§1) biotinylated Mek, Kinase dead approximately 10 nM\n(§2) Pre-incubation time with compounds 60 minutes at room temperature\nReaction time 1 or 3 hours at room temperature\nThe plate was incubated for 60 minutes at room temperature.\n(§3) The additions were carried out under dark conditions to protect the detection beads from light. A lid was placed on top of the plate and incubated for 1 hour at room temperature, then the luminescence was read on a PerkinElmer Envision instrument."}, "[2]": {"target": "C-Raf FL (full-length C-Raf protein) (Homo sapiens (Human), UniProt P04049, Y340E/Y341E)", "format": "biochemical", "details": "Table 2, Alpha Screen phospho-MEK, reaction 1 hour, read-out: c-Raf FL IC-50", "description": "Sf9 cells co-expressing both proteins were lysed and subjected to immobilized nickel chromatography and eluted with Imidazole. A second column (StrepII binding column) was used and eluted with desthiobiotin. Protein Tags were removed using Prescission enzyme and the protein was further purified using a flowthrough step to remove tags.\nC-Raf FL refers to the full-length C-Raf protein.\nFull length MEK1 with an inactivating K97R ATP binding site mutation is utilized as a RAF substrate. The MEK1 cDNA was subcloned with an N-terminal (his)6 tag into a vector for E. Coli expression. The MEK1 substrate was purified from E. Coli lysate by nickel affinity chromatography followed by anion exchange. The final MEK1 preparation was biotinylated (Pierce EZ-Link Sulfo-NHS-LC-Biotin) and concentrated.\nAssay buffer: 50 mM Tris, pH 7.5, 15 mM MgCl2, 0.01% Bovine Serum Albumin (BSA), 1 mM dithiothreitol (DTT)\nStop buffer: 60 mM ethylenediaminetetraacetic acid (EDTA), 0.01% Tween® 20\nas §1, §2\nReaction time 1 or 3 hours at room temperature […]\nas §3"}}, "note": "pIC50: −log10 of the molar value."}
{"compound": "Cc1ncc(NC(=O)c2cccc(C(F)(F)F)c2)cc1-c1cc(N2CCOCC2)nc(NC[C@@H](C)O)n1", "note": "[Example 743, (R)—N-(5-(2-((2-hydroxypropyl)amino)-6-morpholinopyrimidin-4-yl)-6-methylpyridin-3-yl)-3-(trifluoromethyl) benzamide]", "values": [{"measurement": "pIC50", "setting": "[1]", "value": 8.43}]}
{"compound": "N-(4-methyl-3-(5-morpholino-6-((tetrahydro-2H-pyran-4-yl)oxy)pyridazin-3-yl) phenyl)-6-(trifluoromethyl) pyridazine-4-carboxamide [Example 577]", "values": [{"measurement": "pIC50", "setting": "[1]", "value": 9.22}]}
{"compound": "N-(4-methyl-3-(7-morpholino-2-oxo-2,3-dihydrobenzo[d]oxazol-5-yl) phenyl)-3-(trifluoromethyl) benzamide [Example 827]", "values": [{"measurement": "pIC50", "setting": "[2]", "value": 9.70}]}
